IC50 data for 16 compounds are collected here from ChEMBL document CHEMBL4184262, “Iodine mediated pyrazolo-quinoline derivatives as potent anti-proliferative agents” (Bioorg Med Chem Lett, 2018).

Holding throughout (assay type): functional, cell-based
One experiment concerns A549. The experiment in a line: Antiproliferative activity against human A549 cells incubated for 24 hrs by MTT assay. The following applies: A549, 24 h. A general note: Tetrazolium assays rely on reduction of a dye to a coloured formazan, in cell work by metabolically active cells.
The subject of a further experiment is HeLa. The experiment in a line: Antiproliferative activity against human HeLa cells incubated for 24 hrs by MTT assay.
The next experiment deals with SK-N-SH. Briefly: Antiproliferative activity against human SK-N-SH cells incubated for 24 hrs by MTT assay.
The next experiment deals with HepG2. Briefly: Antiproliferative activity against human HepG2 cells incubated for 24 hrs by MTT assay. The following applies: HepG2, 24 h.
The next experiment has as its system MCF7. The experiment in a line: Antiproliferative activity against human MCF7 cells incubated for 24 hrs by MTT assay. Particulars: MCF7, 24 h.

SMILES strings stand for the structures.

For the compound `COc1ccc(-c2nc3ccccc3c3c2c(-c2ccc(Br)cc2)nn3-c2ccccc2)c(OC)c1`, the IC50 – broadly, the concentration that gives 50% inhibition – in the experiment with A549 turned out to be 41.1 µM; with HeLa, 12 µM; in the experiment on SK-N-SH, 3.76 µM; in the experiment with HepG2 it was 42.8 µM; in the experiment with MCF7, 10.4 µM.
In the case of `Brc1ccc(-c2nn(-c3ccccc3)c3c2c(-c2ccccc2)nc2ccccc23)cc1`, the IC50 with A549 turned out to be 4.92 µM; in the experiment with HeLa, 14.3 µM; in the experiment on SK-N-SH, 5.99 µM; with HepG2, 14.6 µM; in the experiment with MCF7, 12.3 µM.
Turning to `Clc1ccc(-c2nc3ccccc3c3c2c(-c2ccccc2)nn3-c2ccccc2)cc1`, the IC50 in the experiment on A549 was 8.09 µM; in the experiment with HeLa, 5.62 µM; in the experiment on SK-N-SH it was 6.65 µM; in the experiment on HepG2, 10.8 µM; with MCF7, 11.1 µM.
`Clc1ccc(-c2nc3ccccc3c3c2c(-c2ccc(Br)cc2)nn3-c2ccccc2)cc1`: the IC50 in the experiment on A549 worked out at 8.79 µM; with HeLa, 9.52 µM; with SK-N-SH, 5.47 µM; in the experiment with HepG2 it was 20.7 µM; with MCF7 it was 38 µM.
Consider `Clc1ccc(-c2nc3ccccc3c3c2c(-c2ccccc2)nn3-c2ccccc2)c(Cl)c1`, for which the IC50 came out at 8.17 µM in the experiment on A549; 5.24 µM in the experiment on HeLa; 11.5 µM in the experiment on SK-N-SH; 83.9 µM in the experiment with HepG2; 77.8 µM in the experiment on MCF7.
Take `COc1ccccc1-c1nc2ccccc2c2c1c(-c1ccc(Br)cc1)nn2-c1ccccc1`: the IC50 was determined as 8.45 µM with A549; 5.29 µM in the experiment with HeLa; 5.54 µM in the experiment with SK-N-SH; 30.3 µM in the experiment on HepG2; 123 µM in the experiment on MCF7.
As for `O=[N+]([O-])c1cccc(-c2nc3ccccc3c3c2c(-c2ccc(Br)cc2)nn3-c2ccccc2)c1`, the IC50 with A549 worked out at 15.6 µM; in the experiment with HeLa it was 6.49 µM; with SK-N-SH it was 3.87 µM; in the experiment with HepG2, 19.3 µM; in the experiment on MCF7 it was 20.3 µM.
Regarding `Brc1ccc(-c2nn(-c3ccccc3)c3c2c(-c2cccc4ccccc24)nc2ccccc23)cc1`, the IC50 in the experiment on A549 was 8.1 µM; in the experiment on HeLa, 11.8 µM; with SK-N-SH, 5.54 µM; in the experiment on HepG2, 24.4 µM; in the experiment on MCF7 it was 18.4 µM.
As for `Cc1ccc(-c2nc3ccccc3c3c2c(-c2ccccc2)nn3-c2ccccc2)cc1`, the IC50 in the experiment on A549 was 56.8 µM; with HeLa it was 7.38 µM; in the experiment with SK-N-SH it was 5.02 µM; in the experiment on HepG2, 32.7 µM; in the experiment with MCF7, 24.2 µM.
Consider `Cc1ccc(-c2nc3ccccc3c3c2c(-c2ccc(Br)cc2)nn3-c2ccccc2)cc1`, for which the IC50 with A549 is 2.43 µM; in the experiment with HeLa it was 8.3 µM; in the experiment with SK-N-SH, 4.54 µM; with HepG2 it was 26 µM; in the experiment on MCF7, 19.6 µM.
`COc1ccccc1-c1nc2ccccc2c2c1c(-c1ccccc1)nn2-c1ccccc1`: the IC50 with A549 was found to be 25.8 µM; in the experiment with HeLa it was 7.81 µM; in the experiment on SK-N-SH, 5.39 µM; in the experiment on HepG2, 18.8 µM; with MCF7, 15.4 µM.
Take `Brc1ccc(-c2nn(-c3ccccc3)c3c2c(-c2ccco2)nc2ccccc23)cc1`: the IC50 with A549 was found to be 8.81 µM; in the experiment on HeLa, 4.89 µM; in the experiment on SK-N-SH it was 3.83 µM; in the experiment with HepG2, 30.4 µM; in the experiment on MCF7 it was 14 µM.
With `c1ccc(-c2nc3ccccc3c3c2c(-c2ccccc2)nn3-c2ccccc2)cc1`, the IC50 is 16.5 µM in the experiment on A549; 24.6 µM in the experiment on HeLa; 5.24 µM in the experiment on SK-N-SH; 18.6 µM in the experiment on HepG2; 32.6 µM in the experiment on MCF7.
For `Clc1ccc(-c2nc3ccccc3c3c2c(-c2ccc(Br)cc2)nn3-c2ccccc2)c(Cl)c1`, the IC50 amounted to 5.96 µM in the experiment on A549; 81.2 µM in the experiment on HeLa; 7.13 µM in the experiment on SK-N-SH; 180 µM in the experiment with HepG2; 6.01 µM in the experiment on MCF7.
As to `Brc1ccc(-c2nn(-c3ccccc3)c3c2c(-c2cccs2)nc2ccccc23)cc1`, the IC50 in the experiment with A549 was found to be 9.34 µM; with HeLa, 23.4 µM; in the experiment on SK-N-SH, 5.24 µM; with HepG2 it was 35 µM; with MCF7, 42.4 µM.
Consider `COc1cccc2c1C(=O)c1c(O)c3c(c(O)c1C2=O)C[C@@](O)(C(=O)CO)C[C@@H]3O[C@H]1C[C@H](N)[C@H](O)[C@H](C)O1` [DOXORUBICIN], for which the half-maximal inhibitory concentration (IC50) came out at 0.223 µM with A549, 2.42 µM in the experiment with SK-N-SH and 6.11 µM with HepG2.
